{
  "source": "patent US20250290928A1",
  "about": "“METHOD, KIT AND DEVICE FOR DETECTING EXTRACELLULAR VESICLES” (priority 2022, published 2025)",
  "key": {"[1]": {"system": "MMP in the MDA-MB-231-derived extracellular vesicles", "experiment": "Evaluation of MMP activity of MDA-MB-231-derived extracellular vesicles with 96-well plate (SensoLyte 520 MMP Substrate Sampler Kit)", "format": "biochemical, Human", "conditions": "MP, EV 3.3 μg/mL", "method": "50 μL of the MMP detection solution was added to 50 μL of each of the samples, a reaction was performed at 30° C., and MMP activity was evaluated.\n50 μL of each of the MMP detection solutions was added to 50 μL of each of the samples, a reaction was performed at 30° C., and MMP activity was evaluated."}, "[2]": {"system": "MMP14 in the HT1080 culture supernatants and the culture medium samples", "experiment": "Evaluation of MMP14 activity of HT1080 culture supernatants, culture media and recovered liquids (exoEasy, qEV) with 96-well plate", "format": "biochemical, Human", "conditions": "for Fluorescence change: after 2 hours; for change in fluorescence intensity after 2 hours: reporter 2.5 μM, 30° C.", "method": "The MMP14 activity was evaluated with a 96-well plate (manufactured by Thermo Fisher Scientific Inc., model number: 137101). […] For measurement wavelengths, an excitation wavelength of 485±20 nm and a fluorescence wavelength of 528±20 nm were used.\nHuman fibrosarcoma HT1080 cells (KAC Co., Ltd.) were cultured in three kinds of cell culture media described later. In addition, 100 mm cell culture Dish (Nunclon Delta Surface) (manufactured by Thermo Fisher Scientific Inc.) was used as a cell culture container.\nEach of the culture supernatants was recovered from each of the dishes in a centrifuge tube, and centrifuged at 2,000×g for 10 minutes at 4° C. Each of the supernatants after the centrifugation was recovered in a fresh container with a small amount of the culture medium remaining so as not to incorporate the precipitated cells. Each of the culture supernatants was filtered through a syringe with a 0.22 μm filter (manufactured by Merck KGaA) so that contaminants such as cell fragments were removed. After that, the filtrate was recovered in a fresh container, and stored at 4° C.\nFrom each of the HT1080 culture supernatants described in the section “(Recovery of Culture Supernatant)”, 100 μL of each of the supernatants after centrifugation and 100 μL of each of the supernatants after filtration through a 0.22 μm filter were each aliquoted, and the buffer (4) was added to the aliquots to provide 1 mL of solutions. The concentration of each of the solutions is 1/10 of the concentration of each of the HT1080 culture supernatants.\nIn addition, for detection of MMP14 activity, 1 mM Custom #1 was diluted with the buffer (4) to prepare a 5 μM MMP14 detection solution.\n50 μL of the MMP14 detection solution was added to 50 μL of each of the samples, a reaction was performed at 30° C., and MMP14 activity was evaluated.\nExtracellular vesicles were recovered from 3 mL of each of the recovered culture supernatants with exoEasy Maxi Kit. In this case, the recovery was performed according to the protocol included in the kit. From 3 mL of each of the culture supernatants, 450 μL of each of recovered liquids was obtained. Each of the recovered liquids has a concentration 6.67 times the original concentration of each of the culture supernatants. Each of the recovered liquids was diluted 66.7-fold to prepare 100 μL of a sample at 1/10 of the original concentration of each of the culture supernatants.\nExtracellular vesicles were recovered from 3 mL of each of the recovered culture supernatants with qEV. In this case, the recovery was performed according to the protocol included in the kit. From 3 mL of each of the culture supernatants, 700 μL of each of fraction recovered liquids in series was obtained. Each of the recovered liquids was used as a sample as it was."}},
  "note": "No end group written: not given here. *: point of attachment. 5FAM = O=C1OC2(c3ccc(O)cc3Oc3cc(O)ccc32)c2ccc(C(=O)*)cc21; TQ2 = quencher; TQ3 = quencher",
  "data": [
    {"substance": "TAMRA-GGPLGLAGGK(TQ3) ({TAMRA}-GGPLGLAGGK(TQ3)) [Custom #2T]", "values": [
      {"measurement": "Fluorescence change after 2 hours of reaction at 30° C.", "setting": "[1]; 1.25 μM Custom #2T with 1.25 μM SB2", "result": "1,319 ΔRFU"},
      {"measurement": "Fluorescence change after 2 hours of reaction at 30° C.", "setting": "[1]; 1.25 μM Custom #2T with 1.25 μM SB6", "result": "1,527 ΔRFU"},
      {"measurement": "Fluorescence change after 2 hours of reaction at 30° C.", "setting": "[1]; 1.25 μM Custom #2T with 1.25 μM SB7", "result": "626 ΔRFU"},
      {"measurement": "Fluorescence change after 2 hours of reaction at 30° C.", "setting": "[1]; 1.25 μM Custom #2T with 1.25 μM SB9", "result": "469 ΔRFU"},
      {"measurement": "Fluorescence change after 2 hours of reaction at 30° C.", "setting": "[1]; 1.25 μM Custom #2T with 1.25 μM SB10", "result": "1,030 ΔRFU"},
      {"measurement": "Fluorescence change after 2 hours of reaction at 30° C.", "setting": "[1]; 5 μM Custom #2T with 5 μM SB2", "result": "710 ΔRFU"},
      {"measurement": "Fluorescence change after 2 hours of reaction at 30° C.", "setting": "[1]; 5 μM Custom #2T with 5 μM SB6", "result": "1,161 ΔRFU"},
      {"measurement": "Fluorescence change after 2 hours of reaction at 30° C.", "setting": "[1]; 5 μM Custom #2T with 5 μM SB7", "result": "288 ΔRFU"},
      {"measurement": "Fluorescence change after 2 hours of reaction at 30° C.", "setting": "[1]; 5 μM Custom #2T with 5 μM SB9", "result": "153 ΔRFU"},
      {"measurement": "Fluorescence change after 2 hours of reaction at 30° C.", "setting": "[1]; 5 μM Custom #2T with 5 μM SB10", "result": "592 ΔRFU"}
    ]},
    {"substance": "[5-FAM]GRIGFLRTAK(TQ2)[OH] (5FAM-GRIGFLRTAK(TQ2)-OH) [Custom #1]", "values": [
      {"measurement": "Fluorescence change", "setting": "[2]; Culture medium Exo-FBS, HT1080 culture Absent, None (VI)", "result": "50,117 ΔRFU"},
      {"measurement": "Fluorescence change", "setting": "[2]; Culture medium Exo-FBS, HT1080 culture Present, Centrifugation + filtration (V)", "result": "45,429 ΔRFU"},
      {"measurement": "Fluorescence change", "setting": "[2]; Culture medium Exo-FBS, HT1080 culture Present, Only centrifugation (IV)", "result": "46,172 ΔRFU"},
      {"measurement": "Fluorescence change", "setting": "[2]; Culture medium FBS, HT1080 culture Absent, None (III)", "result": "66,945 ΔRFU"},
      {"measurement": "Fluorescence change", "setting": "[2]; Culture medium FBS, HT1080 culture Present, Centrifugation + filtration (II)", "result": "65,200 ΔRFU"},
      {"measurement": "Fluorescence change", "setting": "[2]; Culture medium FBS, HT1080 culture Present, Only centrifugation (I)", "result": "64,773 ΔRFU"},
      {"measurement": "Fluorescence change", "setting": "[2]; Culture medium MEM (×10, supernatant without dilution), HT1080 culture Present, Centrifugation + filtration", "result": "1,515 ΔRFU"},
      {"measurement": "Fluorescence change", "setting": "[2]; Culture medium MEM (×10, supernatant without dilution), HT1080 culture Present, Only centrifugation", "result": "2,494 ΔRFU"},
      {"measurement": "Fluorescence change", "setting": "[2]; Culture medium MEM, HT1080 culture Absent, None (IX)", "result": "−311 ΔRFU"},
      {"measurement": "Fluorescence change", "setting": "[2]; Culture medium MEM, HT1080 culture Present, Centrifugation + filtration (VIII)", "result": "186 ΔRFU"},
      {"measurement": "Fluorescence change", "setting": "[2]; Culture medium MEM, HT1080 culture Present, Only centrifugation (VII)", "result": "−240 ΔRFU"},
      {"measurement": "change in fluorescence intensity after 2 hours", "setting": "[2]; Example 56, exoEasy recovered liquid from the Exo-FBS", "result": "the fluorescence intensity was changed"},
      {"measurement": "change in fluorescence intensity after 2 hours", "setting": "[2]; Example 56, exoEasy recovered liquid from the MEM", "result": "no change in fluorescence intensity was recognized"},
      {"measurement": "Fluorescence change", "setting": "[2]; exoEasy recovered liquid, Culture medium Exo-FBS, HT1080 culture Present", "result": "6,663 ΔRFU"},
      {"measurement": "Fluorescence change", "setting": "[2]; exoEasy recovered liquid, Culture medium MEM, HT1080 culture Present", "result": "−313 ΔRFU"},
      {"measurement": "Fluorescence change", "setting": "[2]; qEV recovered liquid, Exo-FBS, HT1080 culture Present, Fraction # 1", "result": "336 ΔRFU"},
      {"measurement": "Fluorescence change", "setting": "[2]; qEV recovered liquid, Exo-FBS, HT1080 culture Present, Fraction # 2", "result": "318 ΔRFU"},
      {"measurement": "Fluorescence change", "setting": "[2]; qEV recovered liquid, Exo-FBS, HT1080 culture Present, Fraction # 3", "result": "271 ΔRFU"},
      {"measurement": "Fluorescence change", "setting": "[2]; qEV recovered liquid, Exo-FBS, HT1080 culture Present, Fraction # 4", "result": "285 ΔRFU"},
      {"measurement": "Fluorescence change", "setting": "[2]; qEV recovered liquid, Exo-FBS, HT1080 culture Present, Fraction # 5", "result": "302 ΔRFU"},
      {"measurement": "Fluorescence change", "setting": "[2]; qEV recovered liquid, Exo-FBS, HT1080 culture Present, Fraction # 6", "result": "325 ΔRFU"},
      {"measurement": "Fluorescence change", "setting": "[2]; qEV recovered liquid, Exo-FBS, HT1080 culture Present, Fraction # 7", "result": "1,869 ΔRFU"},
      {"measurement": "Fluorescence change", "setting": "[2]; qEV recovered liquid, Exo-FBS, HT1080 culture Present, Fraction # 8", "result": "7,249 ΔRFU"},
      {"measurement": "Fluorescence change", "setting": "[2]; qEV recovered liquid, Exo-FBS, HT1080 culture Present, Fraction # 9", "result": "9,417 ΔRFU"},
      {"measurement": "Fluorescence change", "setting": "[2]; qEV recovered liquid, Exo-FBS, HT1080 culture Present, Fraction # 10", "result": "17,731 ΔRFU"},
      {"measurement": "Fluorescence change", "setting": "[2]; qEV recovered liquid, Exo-FBS, HT1080 culture Present, Fraction # 11", "result": "30,226 ΔRFU"},
      {"measurement": "Fluorescence change", "setting": "[2]; qEV recovered liquid, Exo-FBS, HT1080 culture Present, Fraction # 12", "result": "44,826 ΔRFU"},
      {"measurement": "Fluorescence change", "setting": "[2]; qEV recovered liquid, Exo-FBS, HT1080 culture Present, Fraction # 13", "result": "61,704 ΔRFU"},
      {"measurement": "Fluorescence change", "setting": "[2]; qEV recovered liquid, Exo-FBS, HT1080 culture Present, Fraction # 14", "result": "76,810 ΔRFU"},
      {"measurement": "Fluorescence change", "setting": "[2]; qEV recovered liquid, MEM, HT1080 culture Present, Fraction # 1", "result": "245 ΔRFU"},
      {"measurement": "Fluorescence change", "setting": "[2]; qEV recovered liquid, MEM, HT1080 culture Present, Fraction # 2", "result": "285 ΔRFU"},
      {"measurement": "Fluorescence change", "setting": "[2]; qEV recovered liquid, MEM, HT1080 culture Present, Fraction # 3", "result": "245 ΔRFU"},
      {"measurement": "Fluorescence change", "setting": "[2]; qEV recovered liquid, MEM, HT1080 culture Present, Fraction # 4", "result": "304 ΔRFU"},
      {"measurement": "Fluorescence change", "setting": "[2]; qEV recovered liquid, MEM, HT1080 culture Present, Fraction # 5", "result": "1,450 ΔRFU"},
      {"measurement": "Fluorescence change", "setting": "[2]; qEV recovered liquid, MEM, HT1080 culture Present, Fraction # 6", "result": "697 ΔRFU"},
      {"measurement": "Fluorescence change", "setting": "[2]; qEV recovered liquid, MEM, HT1080 culture Present, Fraction # 7", "result": "10,198 ΔRFU"},
      {"measurement": "Fluorescence change", "setting": "[2]; qEV recovered liquid, MEM, HT1080 culture Present, Fraction # 8", "result": "11,966 ΔRFU"},
      {"measurement": "Fluorescence change", "setting": "[2]; qEV recovered liquid, MEM, HT1080 culture Present, Fraction # 9", "result": "1,424 ΔRFU"},
      {"measurement": "Fluorescence change", "setting": "[2]; qEV recovered liquid, MEM, HT1080 culture Present, Fraction # 10", "result": "550 ΔRFU"},
      {"measurement": "Fluorescence change", "setting": "[2]; qEV recovered liquid, MEM, HT1080 culture Present, Fraction # 11", "result": "506 ΔRFU"},
      {"measurement": "Fluorescence change", "setting": "[2]; qEV recovered liquid, MEM, HT1080 culture Present, Fraction # 12", "result": "536 ΔRFU"},
      {"measurement": "Fluorescence change", "setting": "[2]; qEV recovered liquid, MEM, HT1080 culture Present, Fraction # 13", "result": "489 ΔRFU"},
      {"measurement": "Fluorescence change", "setting": "[2]; qEV recovered liquid, MEM, HT1080 culture Present, Fraction # 14", "result": "446 ΔRFU"}
    ]}
  ]
}
